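Assay format: 96-well plates, 48-hour exposure. GI50: concentration for 50% inhibition of growth.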 Active and inactive are the calls of the source. Cut-off read from the data, not from the text of the source: active = GI50 up to about 1.1 µM and inactive = higher.

Test systems include NCI-H460; UACC-62; SK-OV-3; SW-620; MDA-MB-435; NCI/ADR-RES; HOP-62; OVCAR-8; HT-29; HCT-116; OVCAR-5; SF-539; K562; MCF7; Hs-578T; SK-MEL-5; PC-3; SNB-19; SN12C; HCT-15.
Assay in all cases: NCI-60 cell line screen, 48 h

Turning to `CCCCCCCCCCCCCC(=O)O.O=CC(O)C(O)C(OC1OC(CO)C(O)C(O)C1O)C(O)CO` (stereo not given), the GI50 in the test with NCI-H460 is > 100 µM (inactive); in the test with UACC-62 it was 74.6 µM (inactive); in the test with SK-OV-3 it was > 100 µM (inactive); in the test on SW-620, > 100 µM (inactive); in the test on MDA-MB-435, 40.6 µM (inactive); in the test on NCI/ADR-RES it was > 100 µM (inactive). Further, the GI50 was 44.8 µM (inactive) in the test with HOP-62; > 100 µM (inactive) in the test with OVCAR-8; > 100 µM (inactive) with HT-29; > 100 µM (inactive) with HCT-116; > 100 µM (inactive) in the test with OVCAR-5; > 100 µM (inactive) in the test with SF-539. For the same compound, the GI50 with K562 was 26.4 µM (inactive); in the test on MCF7, > 100 µM (inactive); with Hs-578T it was > 100 µM (inactive); with SK-MEL-5 it was 56.8 µM (inactive); with PC-3, 73.5 µM (inactive); with SNB-19, > 100 µM (inactive). Besides, the values for the GI50 in the test on SN12C and in the test with HCT-15 were 80.4 µM (inactive) and 22.9 µM, respectively.
For the compound `CN1C(Cl)=NS(=O)(=O)c2ccccc21`, the GI50 with NCI-H460 was 92.7 µM (inactive); with UACC-62 it was > 100 µM (inactive); with SK-OV-3, > 100 µM (inactive); in the test on SW-620, > 100 µM (inactive); in the test on MDA-MB-435, > 100 µM (inactive); with NCI/ADR-RES, > 100 µM (inactive). In addition, the GI50 with HOP-62, in the test on OVCAR-8, in the test with HT-29, in the test with HCT-116, with OVCAR-5 and with SF-539 was > 100 µM (inactive) in each case. For the same compound, the GI50 in the test with K562, in the test with MCF7, in the test on Hs-578T, in the test with SK-MEL-5, in the test on PC-3 and in the test on SNB-19 was > 100 µM (inactive) each time. The results for the GI50 with SN12C and in the test with HCT-15 were > 100 µM (inactive) and above 100 µM, respectively.
With `Cc1cccc2c1CC(C1OC(=O)c3ccccc31)C2=O` (stereo not given), the GI50 in the test on NCI-H460, in the test on UACC-62, in the test on SK-OV-3, in the test with SW-620, in the test on MDA-MB-435 and with NCI/ADR-RES was > 100 µM (inactive) throughout. Also, the GI50 in the test on HOP-62 is > 100 µM (inactive); in the test on OVCAR-8, > 100 µM (inactive); with HT-29, 48.5 µM (inactive); in the test with HCT-116, > 100 µM (inactive); in the test on OVCAR-5, > 100 µM (inactive); with SF-539, > 100 µM (inactive). Besides, the GI50 in the test on K562, in the test with MCF7, in the test on Hs-578T, in the test on SK-MEL-5, in the test with PC-3 and in the test on SNB-19 was > 100 µM (inactive) throughout. Also, the GI50 with SN12C is > 100 µM (inactive); in the test with HCT-15, above 100 µM.
Turning to `Cc1cc(N2CCN(C)CC2)n2nc(-c3ccc(Cl)cc3)nc2n1`, the GI50 is 50.7 µM (inactive) in the test on NCI-H460; 75.3 µM (inactive) in the test on UACC-62; > 100 µM (inactive) with SK-OV-3; > 100 µM (inactive) in the test with SW-620; > 100 µM (inactive) in the test on MDA-MB-435; 90.6 µM (inactive) with NCI/ADR-RES. The GI50 in the test on HOP-62 was > 100 µM (inactive); in the test on OVCAR-8, > 100 µM (inactive); with HT-29, 69.5 µM (inactive); in the test with HCT-116, 61.7 µM (inactive); in the test with OVCAR-5 it was > 100 µM (inactive); in the test with SF-539 it was 75 µM (inactive). Also, the GI50 is 60.4 µM (inactive) with K562; > 100 µM (inactive) in the test on MCF7; > 100 µM (inactive) with Hs-578T; 50.2 µM (inactive) in the test with SK-MEL-5; > 100 µM (inactive) in the test on PC-3; > 100 µM (inactive) with SNB-19. Also, the GI50 was 54.6 µM (inactive) in the test on SN12C and above 100 µM with HCT-15.
`CC(C)(C)OC(=O)NC(Cc1ccc(OCc2ccccc2)cn1)C(=O)N1CCCCC1` (stereo not given): the GI50 was 33.7 µM (inactive) in the test with NCI-H460; 29.1 µM (inactive) in the test on UACC-62; 58.6 µM (inactive) in the test on SK-OV-3; 89.3 µM (inactive) in the test with SW-620; 19.4 µM (inactive) in the test on MDA-MB-435; 20.9 µM (inactive) in the test on NCI/ADR-RES. Moreover, the GI50 in the test with HOP-62 is 49.9 µM (inactive); in the test with OVCAR-8, 35.6 µM (inactive); in the test on HT-29, 32 µM (inactive); in the test on HCT-116 it was 40.8 µM (inactive); with OVCAR-5 it was 65.2 µM (inactive); in the test with SF-539, 41.3 µM (inactive). For the same compound, the GI50 with K562 is 31.7 µM (inactive); in the test on MCF7, 31.6 µM (inactive); with Hs-578T, 67.3 µM (inactive); in the test on SK-MEL-5, 16.4 µM (inactive); in the test on PC-3 it was 22.2 µM (inactive); with SNB-19, 80.5 µM (inactive). Further, the figures for the GI50 in the test on SN12C and in the test on HCT-15 were 37.8 µM (inactive) and 37.6 µM, respectively.
For `C/C(=N\NC(=S)N1CC2CCC(CC2)C1)c1nccs1`, the GI50 in the test with NCI-H460 is 0.0483 µM (active); in the test with UACC-62, 0.132 µM (active); in the test with SK-OV-3, 0.809 µM (active); in the test on SW-620 it was 0.11 µM (active); in the test with MDA-MB-435, 0.413 µM (active); in the test with NCI/ADR-RES, < 0.0295 µM (active). In addition, the GI50 with HOP-62 is 0.395 µM (active); in the test on OVCAR-8 it was 0.114 µM (active); in the test on HT-29 it was 0.07 µM (active); in the test on HCT-116, < 0.0187 µM (active); in the test with OVCAR-5 it was 0.143 µM (active); in the test on SF-539, 0.307 µM (active). The GI50 with K562 was < 0.01 µM (active); in the test with MCF7, < 0.0258 µM (active); in the test with Hs-578T, 6.1 µM (inactive); with SK-MEL-5, 0.153 µM (active); in the test on PC-3, 0.228 µM (active); in the test on SNB-19, 0.741 µM (active). Also, the values for the GI50 with SN12C and in the test on HCT-15 were 0.853 µM (active) and 0.0516 µM, respectively.
For `N=C(N)N/N=C/c1c(-c2ccccc2)nc2ccn3c(/C=N/N=C(N)N)c(-c4ccccc4)nc3n12`, the GI50 is 32.2 µM (inactive) in the test with NCI-H460; 38.9 µM (inactive) in the test on UACC-62; 37.7 µM (inactive) with SK-OV-3; 36.9 µM (inactive) in the test on SW-620; 61.2 µM (inactive) in the test with MDA-MB-435; > 100 µM (inactive) in the test with NCI/ADR-RES. Moreover, the GI50 with HOP-62 was 55.1 µM (inactive); in the test with OVCAR-8, 26.5 µM (inactive); in the test on HT-29, 34.1 µM (inactive); with HCT-116 it was 26.6 µM (inactive); in the test with OVCAR-5, 37 µM (inactive); in the test with SF-539 it was > 100 µM (inactive). Also, the GI50 was > 100 µM (inactive) in the test on K562; 40.2 µM (inactive) in the test on MCF7; 39.5 µM (inactive) in the test on Hs-578T; 48.4 µM (inactive) with SK-MEL-5; 62.8 µM (inactive) with PC-3; 20.3 µM (inactive) in the test on SNB-19. For the same compound, the figures for the GI50 with SN12C and in the test with HCT-15 were 38.8 µM (inactive) and 38.4 µM, respectively.
On to `O=C1c2ccccc2C(=O)N1c1nc(-c2ccc(Cl)cc2)cc(N2N=C(c3ccc(Br)cc3)CC2c2ccccc2)n1` (stereo not given), for which the GI50 in the test with NCI-H460 was 4.36 µM (inactive); with UACC-62, 2.72 µM (inactive); in the test on SK-OV-3, 6.34 µM (inactive); in the test on SW-620 it was 2.53 µM (inactive); in the test on MDA-MB-435, 0.745 µM (active); with NCI/ADR-RES it was 1.97 µM (inactive). Also, the GI50 in the test with HOP-62 was 2.92 µM (inactive); with OVCAR-8, 3.35 µM (inactive); in the test on HT-29, 2.94 µM (inactive); in the test with HCT-116 it was 2.01 µM (inactive); in the test with OVCAR-5, 1.04 µM (active); in the test with SF-539 it was 2.16 µM (inactive). Also, the GI50 in the test with K562 was 3.08 µM (inactive); in the test on MCF7, 1.3 µM (inactive); in the test with Hs-578T, 3.74 µM (inactive); in the test with SK-MEL-5, 1.96 µM (inactive); in the test with PC-3 it was 3.93 µM (inactive); in the test on SNB-19, 4.86 µM (inactive). Also, the GI50 with SN12C was 2.9 µM (inactive); with HCT-15, 1.99 µM.
Turning to `O=C(/C=C/c1ccc2c(c1)OCO2)NCc1ccco1`, the GI50 in the test with NCI-H460 was > 100 µM (inactive); in the test with UACC-62, 74.6 µM (inactive); with SK-OV-3 it was > 100 µM (inactive); in the test on SW-620 it was > 100 µM (inactive); with MDA-MB-435, > 100 µM (inactive); in the test with NCI/ADR-RES it was > 100 µM (inactive). Also, the GI50 is > 100 µM (inactive) in the test with HOP-62; > 100 µM (inactive) in the test on OVCAR-8; > 100 µM (inactive) in the test with HT-29; > 100 µM (inactive) in the test with HCT-116; > 100 µM (inactive) with OVCAR-5; 64.9 µM (inactive) with SF-539. In addition, the GI50 in the test on K562 is 82.6 µM (inactive); with MCF7, 39.7 µM (inactive); with Hs-578T it was > 100 µM (inactive); in the test with SK-MEL-5, > 100 µM (inactive); with PC-3 it was > 100 µM (inactive); in the test with SNB-19, 50.9 µM (inactive). In addition, the results for the GI50 with SN12C and in the test with HCT-15 were > 100 µM (inactive) and above 100 µM, respectively.
For `N#CC1(C#N)NC(c2ccsc2)C(C#N)(C#N)NC1c1ccsc1` (stereo not given), the GI50 in the test on NCI-H460, in the test with UACC-62, in the test on SK-OV-3, in the test with SW-620, in the test with MDA-MB-435 and in the test with NCI/ADR-RES was > 100 µM (inactive) in each case. Further, the GI50 in the test with HOP-62, in the test on OVCAR-8, in the test with HT-29, with HCT-116, in the test on OVCAR-5 and in the test with SF-539 was > 100 µM (inactive) throughout. For the same compound, the GI50 with K562, with MCF7, in the test with Hs-578T, with SK-MEL-5, in the test with PC-3 and with SNB-19 was > 100 µM (inactive) in each case. For the same compound, the values for the GI50 in the test on SN12C and with HCT-15 were > 100 µM (inactive) and above 100 µM, respectively.

For the origin of these results see ChEMBL document CHEMBL1201862, “PubChem BioAssay data set” (2004).
